From patent publication US12084680B2, “Methods for efficient derivation of human motor neurons from diverse spinal regions” (Wisconsin Alumni Research Foundation, priority 2016, dated 2024) come the findings set out here.

Assay [1] concerns H9 hESCs. Nature of the assay: Induction of NKX6.1+/PAX6+/OLIG2+ motor neuron progenitors from cervical neuromesoderm (flow cytometry, immunocytochemistry). The assay is classed as cell-based, human. The procedure:
(§1) To begin, we sequentially differentiated H9 hESCs in E6 media for 1 day, and FGF8b (200 ng/mL) for 1 day, and FGF8b and CHIR (3 μM) for 2 days to generate cervical neuromesoderm (FIGS. 5A-5B). Then, we screened the effects of CHIR, PM, and SHH treatment on NKX6.1^+/PAX6^+/OLIG2^+ motor neuron progenitor induction while transitioning to media containing 1 μM RA (FIGS. 5A-5D). Prior to the addition of RA, NKX6.1 was expressed in the cervical neuromesodermal state at day 4 (80±18% NKX6.1^+; data not shown), likely due to the CHIR-induced Wnt/β-catenin signaling (FIGS. 4A-4H). Transitioning the neuromesodermal progenitors to RA-containing media for 2 days induced HOXB4^+/HOXC6^+/HOXC9^−/HOXD10^−/PAX6^+ cervical neuroectoderm in all conditions (FIGS. 5B-5C), as expected. However, without co-activation of SHH signaling by PM or SHH, NKX6.1 expression was quickly lost by day 6 (97±1% PAX6^+, 17±3% NKX6.1^+) (FIG. 5C). […] To bolster this claim, we also analyzed the abundance of full-length GLI3 versus its truncated repressor form by western blot. […] Thus, Wnt/β-catenin signaling is necessary to induce ventral identity, but its continuous activation during OLIG2 induction by SHH signaling is detrimental to motor neuron differentiation, possibly due to activation of the GLI3 repressor.
Next, we tested conditions where CHIR was removed after transitioning to media containing RA (1 μM), PM (2 μM), and SHH (2 μg/mL) (FIGS. 5A-5C).
Since NKX6.1 is a pre-requisite to OLIG2 expression, we hypothesized that the Wnt/β-catenin signaling-dependent NKX6.1 expression levels may still be too low for efficient OLIG2^+ motor neuron progenitor induction. Therefore, the concentration of CHIR was boosted to 6 or 9 μM for 6 h immediately prior to transitioning to E6 medium containing RA, PM, and SHH without CHIR (FIG. 5A). The 9 μM CHIR boost followed by a transition to media containing 1 μM RA, 2 μM PM, and 2 μg/mL SHH yielded optimal motor neuron progenitor cultures with highly uniform NKX6.1, OLIG2, and PAX6 expression (96±1%, 85±9%, and 97±2%, respectively) (FIGS. 5C-5D).
hESCs were dissociated with accutase (Thermo Fisher Scientific) and reseeded at 1×10^5 cells/cm2 in E8 medium containing 10 μM ROCK inhibitor (Y27632; R&D Systems) on 6-well polystyrene tissue culture plates coated with 100 μg/mL poly-L-ornithine (PLO; Sigma) and 8 μg/well VTN-NC. The timelines and relevant growth factors/small molecules for all differentiation procedures are described in detail in the Results section and its accompanying figures. Cells were differentiated for various amounts of time in E6 medium containing the same insulin concentration as E8 medium as described above with varying combinations of soluble factors (product information and concentration ranges are found in Table 2). For neuromesodermal induction and HOX propagation, cells were sequentially cultured with FGF8b, CHIR99021 (CHIR), GDF11, and dorsomorphin (DM) as previously described. Briefly, to initiate the neuromesodermal state, cells were changed to E6 medium followed by addition of FGF8b (200 ng/ml) 24 h later. To generate cervical neuromesodermal progenitors, cells were washed with PBS, treated with accutase, and re-seeded in E6 medium containing 200 ng/ml FGF8b, 3 μM CHIR, and 10 μM Y27632 on VTN-NC-coated plates at a density of 1.5×10^5 cells/cm^2 for 48 h. To generate thoracic neuromesodermal progenitors, cells were passaged again after 72 h of CHIR treatment and re-seeded at different densities as described in the text.
(§2) Thoracic identity was reached after an additional 24 h. Then, to reach the lumbosacral level, cells were given 30 ng/ml GDF11 and 1 μM DM for an additional 48 h. For neuroectoderm induction and generation of OLIG2^+ progenitors, FGF8b was removed at the designated time points and the concentration of CHIR was increased for 6 h as described in the text, followed by a transition to media containing RA, PM, and SHH for a period of 48 h. […]
In general terms: In flow cytometry, cells or beads pass a laser one at a time.

In assay [2] the test system is GLI1, GLI2, GLI3. Briefly: qPCR of GLI transcription factors in day 6 cultures. The assay is classed as cell-based, human. Particulars: 6 μM CHIR maintained during RA and PM/SHH exposure, day 6, versus 0 μM CHIR. Here is the method: as §1, §2
For orientation: In qPCR the cycle at which signal appears reflects the starting amount.

The mark [3] stands for this setting: 9 μM CHIR boost 6 h, then 1 μM RA, 2 μM PM, 2 μg/mL SHH without CHIR, day 6.
Setting [4] is: CHIR continued at 3 μM with RA, PM 2 μM, SHH 2 μg/mL, day 6.
[5] abbreviates: CHIR continued at 6 μM with RA, PM, SHH, day 6.

For the compound `Cc1c[nH]c(-c2cnc(NCCNc3ccc(C#N)cn3)nc2-c2ccc(Cl)cc2Cl)n1` [CHIR, CHIR99021], in assay [1] (setting [3]), the NKX6.1 expression is on record as 96±1%, the OLIG2 expression came to 85±9% and the PAX6 expression is 97±2%. Also, in assay [1] (setting [4]), the “NKX6.1 and PAX6/SOX2 neuroectoderm marker expression” value was “uniformly expressed”; the OLIG2 induction result is reported as “minimal OLIG2 was induced”. Besides, in assay [1] (setting [5]), the OLIG2 induction result is recorded as “OLIG2 was still not induced”, the PAX6 expression entry was “PAX6 expression was diminished” and the PAX7 detection entry is given as “no PAX7 was detected”. Besides, the “NKX6.1+ cells in cervical neuromesodermal state” value in assay [1] (FGF8b 200 ng/mL and CHIR 3 μM for 2 days, day 4, before RA) came to 80±18%. In addition, in assay [2], the “decrease in GLI1 expression (qPCR)” value is given as > 8 fold, the “decrease in GLI2 expression (qPCR)” value is > 4 fold and the “increase in GLI3 expression (qPCR)” value was ~2 fold.
